Laboratory results reported in patent publication US20030114441A1, “Heterocyclic anti-epileptogenic agents and methods of use thereof” (Queen's University at Kingston, priority 2001, published 2003).

Key:
MES-induced seizure = assay: Maximal electroshock seizure test (MES); assay type: in vivo, male Carworth Farms #1 mice or male Sprague-Dawley rats; parameters: key to MES 0.5 hr / MES 4 hr: — = no activity; conditions: for MES 0.5 hr / MES 4 hr: i.p. at 300, 100 and 30 mg/kg; for MES 0.5 hr: stimulus 0.5 hr after administration; for MES 4 hr: stimulus 4 hr after administration
Method: The MES and PTZ assays were performed by the Anticonvulsant Drug Development (ADD) Program in the Epilepsy Branch of the NIH (see, e.g., Stables and Kupferberg (1997) The NIH anticonvulsant Drug Development (ADD) Program: Preclinical Anticonvulsant Screening Project, Libby & Sons). All compounds were tested with either male Carworth Farms #1 mice or male Sprague-Dawley rats. Each test compound was administered via an i.p. injection at 300, 100, and 30 mg/kg. For the maximal electroshock seizure test (MES), corneal electrodes primed with a drop of electrolyte solution (0.9% NaCl) are applied to the eyes of the animal and an electrical stimulus (50 mA for mice, 150 mA for rats; 60 Hz) is delivered for 0.2 seconds at 0.5 and 4.0 hours after test compound administration. The animals are restrained by hand and are released at the moment of stimulation in order to permit observation of the seizure.

[1] = test system: pilocarpine-induced seizures; assay: Pilocarpine assay (seizure model); assay type: in vivo, adult male Sprague-Dawley rats; conditions: 100 mg/kg i.p., 20 min before pilocarpine hydrochloride 350 mg/kg i.p.; 30 minute observation
Method: A seizure model is performed using adult male Sprague-Dawley rats in accordance with the guidelines of the Canada Council on Animal Care and under the supervision of the Queen's University Animal Ethics Committee. This test procedure was adopted from previous work by Turski et al. (1984) Brain Res. 321:237. The test compounds are administered at 100 mg/kg by intraperitoneal (i.p.) injection. Seizures are induced 20 minutes afterwards by i.p. administration of pilocarpine hydrochloride (350 mg/kg). Protection is defined as the absence of clonic spasms over a 30 minute observation period after pilocarpine administration.

PTZ-induced seizure = assay: Subcutaneous pentylenetetrazole (PTZ)-induced seizure model; assay type: in vivo, male Carworth Farms #1 mice or male Sprague-Dawley rats; parameters: key to PTZ 0.5 hr / PTZ 4 hr: — = no activity; conditions: for PTZ 0.5 hr / PTZ 4 hr: i.p. at 300, 100 and 30 mg/kg; for PTZ 0.5 hr: PTZ 0.5 hr after administration; for PTZ 4 hr: PTZ 4 hr after administration
Method: The MES and PTZ assays were performed by the Anticonvulsant Drug Development (ADD) Program in the Epilepsy Branch of the NIH (see, e.g., Stables and Kupferberg (1997) The NIH anticonvulsant Drug Development (ADD) Program: Preclinical Anticonvulsant Screening Project, Libby & Sons). All compounds were tested with either male Carworth Farms #1 mice or male Sprague-Dawley rats. Each test compound was administered via an i.p. injection at 300, 100, and 30 mg/kg. In the subcutaneous pentylenetetrazole (PTZ)-induced seizure model, seizures are induced 0.5 and 4 hrs after test compound administration by i.p. injection of PTZ (85 mg/kg in mice and 70 mg/kg in rats). Protection is defined as the inhibition of clonic spasms over a 30 min observation period.

[2] = test system: spontaneous recurrent seizures; assay: Spontaneous recurrent seizures (SRS) model of epilepsy; assay type: in vivo, adult male Sprague-Dawley rat; conditions: 20 mg/kg/day i.v. for 10 day
Method: The “spontaneous recurrent seizures” (SRS) model of epilepsy is used to evaluate candidate compounds in a model for Phase 1 epileptogenesis (see, e.g., Mello, E. et al., Epilepsia (1993) 34:985; Cavalheiro, J. et al., Epilepsia (1991) 32:778). In the SRS model, an adult male Sprague-Dawley rat (c. 260 g) is given pilocarpine by injection (380 mg/kg i.p.). Within 25 minutes, the animal enters status epilepticus, which lasts for 3 hours, and then diazepam is administered to stop seizures. The rat is allowed to spontaneously recover and is given food and water ad lib. and maintained on a 12 hour/12 hour light/dusk cycle. Beginning on about day 13-15, the rats develop spontaneous recurrent seizures, which occur at the rate of about 4-5 per week. The rats are videotaped 8 hours per day 5 days per week, and the videotapes are reviewed for behavioral seizures (including head nodding, forelimb clonus, and rearing), which are counted. The animals are watched for two months, permitting evaluation of a sufficient number of seizures. An experimental compound for evaluation can be administered at either of two times: Time 1, on Day 1, after the cessation of status epilepticus but before the onset of SRS; or Time 2, on Day 30, when the rats have been experiencing SRS for about two weeks. […]

[3] = @ 100 mg, i.p., 4 hr after administration

| Structure (SMILES) | MES 0.5 hr (MES-induced seizure) | MES 4 hr (MES-induced seizure) | Pilocarpine, activity in words [1] | PTZ 0.5 hr (PTZ-induced seizure) | PTZ 4 hr (PTZ-induced seizure) | further results |
| --- | --- | --- | --- | --- | --- | --- |
| COC(=O)CC(NC(C)c1ccccc1)c1cnc2ccccc2c1 (stereo not shown) | — | — | Min. Active | — | — |  |
| COC(=O)CC(NC(C)c1ccccc1)c1ccc2ccccc2n1 (stereo not shown) | — | — | Active | — | — |  |
| NC(CC(=O)O)c1ccc2c(c1)OCCO2 (stereo not shown) |  |  | Min. Active |  |  |  |
| O=C(CC(c1ccc2ccccc2n1)N(Cc1ccccc1)Cc1ccccc1)N(Cc1ccccc1)Cc1ccccc1 (stereo not shown) | — | — | Min. Active | — | — |  |
| COC(=O)CC(Nc1ccccc1OC)c1ccc2ccccc2n1 (stereo not shown) |  |  | Active |  |  |  |
| COC(=O)CC(NC(C)c1ccccc1)c1cc2ccccc2o1 (stereo not shown) | — | — | Active |  |  | PTZ 4 hr, fraction of animals (PTZ-induced seizure; [3]): 1/5 @ 100 mg; PTZ 0.5 hr, fraction of animals (PTZ-induced seizure; @ 300 mg, i.p., 0.5 hr after administration): 2/5 @ 300 mg |
| COC(=O)CC(Nc1ccccc1OC)c1cc2ccccc2nc1Cl (stereo not shown) |  |  | Min. Active |  |  |  |
| NC(CC(=O)O)c1cccs1 (stereo not shown) | — | — | Active | — | — |  |
| COC(=O)CC(NC(C)c1ccccc1)c1ccc2c(c1)cc(C)n2S(=O)(=O)c1ccccc1 (stereo not shown) |  |  | Active |  |  |  |
| COC(=O)CC(c1ccc2ccccc2n1)N(Cc1ccccc1)Cc1ccccc1 (stereo not shown) | — |  | Inactive | — | — | MES 4 hr, fraction of animals (MES-induced seizure; [3]): 1/3 @ 100 mg |
| CC(NC(CC(=O)O)c1ccc2ccccc2n1)c1ccccc1 (stereo not shown) |  |  | Active |  |  |  |
| O=C1NC(=O)C(c2ccccc2)(c2ccccc2)N1 [phenytoin] |  |  |  |  |  | Preventing the onset of seizures (Time 1) ([2]; Time 1 (Day 1, after status epilepticus, before onset of SRS)): ineffective; Effective at decreasing seizure frequency by 50% or more (Time 2) ([2]; Time 2 (Day 30, established SRS)): 75% |
